Test results from patent publication US20020137929A1, “1 - (3-heterocyclylphenyl) isothiourea, -isourea, -guanidine and -amidine herbicidal agents” (Intellectual Property Department, BASF Aktiengesellschaft, priority 1998, published 2002).

Key:
ABUTH (Velvetleaf) = test: Postemergence herbicidal evaluation; assay type: in vivo, Abutilon theophrasti; details: postemergence
In short: (§1)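 ~2-wk seedlings; postemergence spray, 40 psi; vehicle 1:1 acetone:water + 0.5% Tween 20; rate ≈0.0156–0.500 kg/ha; greenhouse hold; scored 4–5 wk after treatment, 0–9 scale vs control; repeat tests averaged.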

AMBEL (Ragweed, Common) = test: Postemergence herbicidal evaluation; assay type: in vivo, Ambrosia artemisifolia; details: postemergence
In short: as §1

ECHCG (Barnyardgrass) [1] = test: Postemergence herbicidal evaluation; assay type: in vivo, Echinochloa crus-galli; details: postemergence
In short: as §1

SETVI (Foxtail, Green) = test: Postemergence herbicidal evaluation; assay type: in vivo, Setaria viridis; details: postemergence
In short: as §1

[2] = system: GLXMAW (Soybean, Williams); test: Postemergence herbicidal evaluation; assay type: in vivo, Glycine max, (L.) Merr. cv Williams; details: postemergence
In short: as §1

[3] = system: TRZAWR (Wheat, Winter, cv Riband); test: Postemergence herbicidal evaluation; assay type: in vivo, Triticum aestivum; details: postemergence
In short: as §1

CASOB (Sicklepod) = test: Preemergence herbicidal evaluation; assay type: in vivo, Cassia obtusifolia; details: rated 4-5 weeks after treatment
In short: (§2)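 Herbicidal effect scored visually, 0-9, at 4 to 5 weeks against a control; compound applied preemergence by aqueous acetone spray to seeded soil at about 0.0156 to 0.500 kg/ha.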

[4] = system: CHEAL (Lambsquarters, Common); test: Preemergence herbicidal evaluation; assay type: in vivo, Chenopodium album; details: rated 4-5 weeks after treatment
In short: as §2

GALAP (Galium) = test: Preemergence herbicidal evaluation; assay type: in vivo, Galium aparine; details: rate 0.0313 kg/ha; rated 4-5 weeks after treatment
In short: as §2

ECHCG (Barnyardgrass) [5] = test: Preemergence herbicidal evaluation; assay type: in vivo, Echinochloa crus-galli; details: rated 4-5 weeks after treatment
In short: as §2

ZEAMX (Corn, Field) = test: Preemergence herbicidal evaluation; assay type: in vivo, Zea mays; details: rated 4-5 weeks after treatment
In short: as §2

[6] = system: ECHORC (Watergrass (Calif.)); test: Postemergence weed control under flooded paddy conditions; assay type: in vivo, Echinochloa oryzoides; details: postemergence weeds, 3-4 weeks after treatment
Excerpt: Results of herbicide evaluation are expressed on a rating scale (0-9). The scale is based upon a visual observation of plant stand, vigor, malformation, size, chlorosis and overall plant appearance as compared with a control.
Plastic containers containing weeds which are 3 to 5 cm tall and rice seedlings at the 1.5 to 2.5 leaf stage are flooded with water. The water is maintained at 1.5 to 3 cm above the soil surface for the duration of the experiment. Test compounds are applied as aqueous/ acetone mixtures 50/50 v/v directly into the flood water to provide the equivalent of about 0.0313 to 0.500 kg/ha of active ingredient. The treated containers are placed on greenhouse benches and cared for in accordance with conventional greenhouse procedures. Three to four weeks after treatment, the test is terminated and each container is examined and herbicidal effect rated according to the rating system provided in Example 37. The compounds evaluated are reported by compound number given in Example 37.

O=C1CSC(=Nc2cc(N3C(=O)C4=C(CCCC4)C3=O)c(F)cc2Cl)N1c1ccccc1 [Compound 3, N-{4-chloro-2-fluoro-5-[(4-oxo-3-phenyl-2-thiazolidinylidene)amino]phenyl}-1-cyclohexene-1,2-dicarboximide]
ABUTH herbicidal rating (ABUTH (Velvetleaf); rate 0.0157 kg/ha): 6.0
ABUTH herbicidal rating (ABUTH (Velvetleaf); rate 0.0313 kg/ha): 6.0
ABUTH herbicidal rating (ABUTH (Velvetleaf); rate 0.0625 kg/ha): 6.0
ABUTH herbicidal rating (ABUTH (Velvetleaf); rate 0.1250 kg/ha): 9.0
ABUTH herbicidal rating (ABUTH (Velvetleaf); rate 0.2500 kg/ha): 6.0
ABUTH herbicidal rating (ABUTH (Velvetleaf); rate 0.5000 kg/ha): 9.0
AMBEL herbicidal rating (AMBEL (Ragweed, Common); rate 0.0313 kg/ha): 2.0
AMBEL herbicidal rating (AMBEL (Ragweed, Common); rate 0.0625 kg/ha): 0.0
AMBEL herbicidal rating (AMBEL (Ragweed, Common); rate 0.1250 kg/ha): 6.0
AMBEL herbicidal rating (AMBEL (Ragweed, Common); rate 0.2500 kg/ha): 6.0
AMBEL herbicidal rating (AMBEL (Ragweed, Common); rate 0.5000 kg/ha): 9.0
ECHCG herbicidal rating (ECHCG (Barnyardgrass) [1]; rate 0.0157 kg/ha): 0.0
ECHCG herbicidal rating (ECHCG (Barnyardgrass) [1]; rate 0.0313 kg/ha): 0.0
ECHCG herbicidal rating (ECHCG (Barnyardgrass) [1]; rate 0.0625 kg/ha): 0.0
ECHCG herbicidal rating (ECHCG (Barnyardgrass) [1]; rate 0.1250 kg/ha): 0.0
ECHCG herbicidal rating (ECHCG (Barnyardgrass) [1]; rate 0.2500 kg/ha): 0.0
ECHCG herbicidal rating (ECHCG (Barnyardgrass) [1]; rate 0.5000 kg/ha): 0.0
SETVI herbicidal rating (SETVI (Foxtail, Green); rate 0.0157 kg/ha): 0.0
SETVI herbicidal rating (SETVI (Foxtail, Green); rate 0.0313 kg/ha): 0.0
SETVI herbicidal rating (SETVI (Foxtail, Green); rate 0.0625 kg/ha): 0.0
SETVI herbicidal rating (SETVI (Foxtail, Green); rate 0.1250 kg/ha): 0.0
SETVI herbicidal rating (SETVI (Foxtail, Green); rate 0.2500 kg/ha): 0.0
SETVI herbicidal rating (SETVI (Foxtail, Green); rate 0.5000 kg/ha): 0.0
GLXMAW herbicidal rating ([2]; rate 0.0157 kg/ha): 2.5
GLXMAW herbicidal rating ([2]; rate 0.0313 kg/ha): 3.5
GLXMAW herbicidal rating ([2]; rate 0.0625 kg/ha): 3.0
GLXMAW herbicidal rating ([2]; rate 0.1250 kg/ha): 4.0
GLXMAW herbicidal rating ([2]; rate 0.2500 kg/ha): 4.0
GLXMAW herbicidal rating ([2]; rate 0.5000 kg/ha): 4.5
TRZAWR herbicidal rating ([3]; rate 0.0157 kg/ha): 2.5
TRZAWR herbicidal rating ([3]; rate 0.0313 kg/ha): 2.5
TRZAWR herbicidal rating ([3]; rate 0.0625 kg/ha): 3.0
TRZAWR herbicidal rating ([3]; rate 0.1250 kg/ha): 2.5
TRZAWR herbicidal rating ([3]; rate 0.2500 kg/ha): 3.0
TRZAWR herbicidal rating ([3]; rate 0.5000 kg/ha): 4.0
CASOB preemergence herbicidal rating (CASOB (Sicklepod); rate 0.0313 kg/ha): 0.0
CASOB preemergence herbicidal rating (CASOB (Sicklepod); rate 0.0625 kg/ha): 0.0
CASOB preemergence herbicidal rating (CASOB (Sicklepod); rate 0.1250 kg/ha): 0.0
CASOB preemergence herbicidal rating (CASOB (Sicklepod); rate 0.2500 kg/ha): 0.0
CASOB preemergence herbicidal rating (CASOB (Sicklepod); rate 0.5000 kg/ha): 2.0
CHEAL preemergence herbicidal rating ([4]; rate 0.0313 kg/ha): 6.0
CHEAL preemergence herbicidal rating ([4]; rate 0.0625 kg/ha): 9.0
CHEAL preemergence herbicidal rating ([4]; rate 0.1250 kg/ha): 9.0
CHEAL preemergence herbicidal rating ([4]; rate 0.2500 kg/ha): 9.0
CHEAL preemergence herbicidal rating ([4]; rate 0.5000 kg/ha): 9.0
GALAP preemergence herbicidal rating (GALAP (Galium)): 4.0
ECHCG preemergence herbicidal rating (ECHCG (Barnyardgrass) [5]; rate 0.0313 kg/ha): 0.0
ECHCG preemergence herbicidal rating (ECHCG (Barnyardgrass) [5]; rate 0.0625 kg/ha): 0.0
ECHCG preemergence herbicidal rating (ECHCG (Barnyardgrass) [5]; rate 0.1250 kg/ha): 2.0
ECHCG preemergence herbicidal rating (ECHCG (Barnyardgrass) [5]; rate 0.2500 kg/ha): 4.0
ECHCG preemergence herbicidal rating (ECHCG (Barnyardgrass) [5]; rate 0.5000 kg/ha): 6.0
ZEAMX preemergence herbicidal rating (ZEAMX (Corn, Field); rate 0.0313 kg/ha): 0.0
ZEAMX preemergence herbicidal rating (ZEAMX (Corn, Field); rate 0.0625 kg/ha): 0.0
ZEAMX preemergence herbicidal rating (ZEAMX (Corn, Field); rate 0.1250 kg/ha): 1.0
ZEAMX preemergence herbicidal rating (ZEAMX (Corn, Field); rate 0.2500 kg/ha): 2.0
ZEAMX preemergence herbicidal rating (ZEAMX (Corn, Field); rate 0.5000 kg/ha): 4.0
Herbicidal rating ECHORC ([6]; rate 0.0625 kg/ha): 0.0
Herbicidal rating ECHORC ([6]; rate 0.1250 kg/ha): 0.0
Herbicidal rating ECHORC ([6]; rate 0.2500 kg/ha): 1.0
Herbicidal rating ECHORC ([6]; rate 0.5000 kg/ha): 2.0

CN1C(=O)C(F)SC1=Nc1cc(N2C(=O)C3=C(CCCC3)C2=O)c(F)cc1Cl (stereo not shown) [Compound 5, N-{4-chloro-2-fluoro-5-[(5-fluoro-3-methyl-4-oxo-2-thiazolidinylidene)amino]phenyl}-1-cyclohexene-1,2-dicarboximide]
ABUTH herbicidal rating (ABUTH (Velvetleaf); rate 0.0157 kg/ha): 1.0
ABUTH herbicidal rating (ABUTH (Velvetleaf); rate 0.0313 kg/ha): 2.0
ABUTH herbicidal rating (ABUTH (Velvetleaf); rate 0.0625 kg/ha): 9.0
ABUTH herbicidal rating (ABUTH (Velvetleaf); rate 0.1250 kg/ha): 9.0
ABUTH herbicidal rating (ABUTH (Velvetleaf); rate 0.2500 kg/ha): 9.0
ABUTH herbicidal rating (ABUTH (Velvetleaf); rate 0.5000 kg/ha): 9.0
AMBEL herbicidal rating (AMBEL (Ragweed, Common); rate 0.0157 kg/ha): 0.0
AMBEL herbicidal rating (AMBEL (Ragweed, Common); rate 0.0313 kg/ha): 0.0
AMBEL herbicidal rating (AMBEL (Ragweed, Common); rate 0.0625 kg/ha): 0.0
AMBEL herbicidal rating (AMBEL (Ragweed, Common); rate 0.1250 kg/ha): 0.0
AMBEL herbicidal rating (AMBEL (Ragweed, Common); rate 0.2500 kg/ha): 2.0
AMBEL herbicidal rating (AMBEL (Ragweed, Common); rate 0.5000 kg/ha): 9.0
ECHCG herbicidal rating (ECHCG (Barnyardgrass) [1]; rate 0.0157 kg/ha): 0.0
ECHCG herbicidal rating (ECHCG (Barnyardgrass) [1]; rate 0.0313 kg/ha): 0.0
ECHCG herbicidal rating (ECHCG (Barnyardgrass) [1]; rate 0.0625 kg/ha): 0.0
ECHCG herbicidal rating (ECHCG (Barnyardgrass) [1]; rate 0.1250 kg/ha): 3.0
ECHCG herbicidal rating (ECHCG (Barnyardgrass) [1]; rate 0.2500 kg/ha): 4.0
ECHCG herbicidal rating (ECHCG (Barnyardgrass) [1]; rate 0.5000 kg/ha): 2.0
SETVI herbicidal rating (SETVI (Foxtail, Green); rate 0.0157 kg/ha): 0.0
SETVI herbicidal rating (SETVI (Foxtail, Green); rate 0.0313 kg/ha): 0.0
SETVI herbicidal rating (SETVI (Foxtail, Green); rate 0.0625 kg/ha): 2.0
SETVI herbicidal rating (SETVI (Foxtail, Green); rate 0.1250 kg/ha): 4.0
SETVI herbicidal rating (SETVI (Foxtail, Green); rate 0.2500 kg/ha): 8.0
SETVI herbicidal rating (SETVI (Foxtail, Green); rate 0.5000 kg/ha): 4.0
TRZAWR herbicidal rating ([3]; rate 0.0157 kg/ha): 3.0
TRZAWR herbicidal rating ([3]; rate 0.0313 kg/ha): 3.0
TRZAWR herbicidal rating ([3]; rate 0.0625 kg/ha): 3.5
TRZAWR herbicidal rating ([3]; rate 0.1250 kg/ha): 4.5
TRZAWR herbicidal rating ([3]; rate 0.2500 kg/ha): 5.0
TRZAWR herbicidal rating ([3]; rate 0.5000 kg/ha): 4.5
CASOB preemergence herbicidal rating (CASOB (Sicklepod); rate 0.0625 kg/ha): 0.0
CASOB preemergence herbicidal rating (CASOB (Sicklepod); rate 0.1250 kg/ha): 0.0
CASOB preemergence herbicidal rating (CASOB (Sicklepod); rate 0.2500 kg/ha): 0.0
CASOB preemergence herbicidal rating (CASOB (Sicklepod); rate 0.5000 kg/ha): 0.0
CHEAL preemergence herbicidal rating ([4]; rate 0.0625 kg/ha): 4.0
CHEAL preemergence herbicidal rating ([4]; rate 0.1250 kg/ha): 5.0
CHEAL preemergence herbicidal rating ([4]; rate 0.2500 kg/ha): 9.0
CHEAL preemergence herbicidal rating ([4]; rate 0.5000 kg/ha): 9.0
ECHCG preemergence herbicidal rating (ECHCG (Barnyardgrass) [5]; rate 0.0625 kg/ha): 0.0
ECHCG preemergence herbicidal rating (ECHCG (Barnyardgrass) [5]; rate 0.1250 kg/ha): 2.0
ECHCG preemergence herbicidal rating (ECHCG (Barnyardgrass) [5]; rate 0.2500 kg/ha): 6.0
ECHCG preemergence herbicidal rating (ECHCG (Barnyardgrass) [5]; rate 0.5000 kg/ha): 7.0
ZEAMX preemergence herbicidal rating (ZEAMX (Corn, Field); rate 0.0625 kg/ha): 0.0
ZEAMX preemergence herbicidal rating (ZEAMX (Corn, Field); rate 0.1250 kg/ha): 1.0
ZEAMX preemergence herbicidal rating (ZEAMX (Corn, Field); rate 0.2500 kg/ha): 2.0
ZEAMX preemergence herbicidal rating (ZEAMX (Corn, Field); rate 0.5000 kg/ha): 2.0
Herbicidal rating ECHORC ([6]; rate 0.1250 kg/ha): 0.5
Herbicidal rating ECHORC ([6]; rate 0.2500 kg/ha): 1.0
Herbicidal rating ECHORC ([6]; rate 0.5000 kg/ha): 2.0
